Where “and” joins values, the source holds several entries; their conditions need not be identical. Equal entries are not always repeated.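 1) Cells in 96-well plates. 2) Compound, 48 h, 5 concentrations. 3) Linear interpolation between surrounding doses. 4) Unreached endpoint = highest concentration. Abbreviation: GI50, concentration required for 50% inhibition of growth. The concentration for full growth arrest is given as TGI.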

Some test systems named below: 786-0 renal; CCRF-CEM leukemia; EKVX NSCLC; LOX IMVI melanoma; M14 melanoma; MDA-MB-435; NCI-H23 lung; OVCAR-5 ovarian; SK-MEL-2 melanoma; TK-10 renal.
Holding throughout (test): NCI-60 cell line screen, 48 h

For `CN(C)S(=O)(=O)c1cccc(C(=O)Nc2nc(-c3ccc(F)c(F)c3)cs2)c1`, the GI50 with 786-0 renal is 18.8 µM; in the experiment with CCRF-CEM leukemia, 10.7 µM; with EKVX NSCLC it was 4 µM; with LOX IMVI melanoma, 24 µM; in the experiment on M14 melanoma, 23.5 µM; with MDA-MB-435 it was 5.41 µM. Besides, the GI50 is 10.3 µM in the experiment on NCI-H23 lung, 98.4 µM in the experiment with OVCAR-5 ovarian, 19.4 µM with SK-MEL-2 melanoma and 18.1 µM in the experiment with TK-10 renal. The TGI was 90.4 µM in the experiment on 786-0 renal; greater than 100 µM in the experiment on CCRF-CEM leukemia; greater than 76.2 µM with EKVX NSCLC; greater than 100 µM in the experiment with LOX IMVI melanoma; greater than 100 µM with M14 melanoma; greater than 100 µM in the experiment on MDA-MB-435. For the same molecule, the TGI with NCI-H23 lung, in the experiment on OVCAR-5 ovarian, with SK-MEL-2 melanoma and in the experiment with TK-10 renal was greater than 100 µM in each case.

Consider `COc1ccc(-n2cc(-c3cc(OC)c(OC)c(OC)c3)nc2SCc2cccc(C#N)c2)cc1OC`, for which the GI50 with 786-0 renal is greater than 100 µM; with CCRF-CEM leukemia, greater than 100 µM; in the experiment with EKVX NSCLC, greater than 100 µM; in the experiment on LOX IMVI melanoma, greater than 100 µM; in the experiment with M14 melanoma, greater than 100 µM; with MDA-MB-435 it was 90.5 µM. Also, the GI50 in the experiment on NCI-H23 lung, in the experiment on OVCAR-5 ovarian, in the experiment with SK-MEL-2 melanoma and in the experiment with TK-10 renal was greater than 100 µM throughout. The TGI with 786-0 renal, with CCRF-CEM leukemia, in the experiment on EKVX NSCLC, in the experiment on LOX IMVI melanoma, in the experiment with M14 melanoma and with MDA-MB-435 was greater than 100 µM throughout. The TGI with NCI-H23 lung, with OVCAR-5 ovarian, in the experiment with SK-MEL-2 melanoma and in the experiment on TK-10 renal was greater than 100 µM in each case.

Take `CCc1nc(N)nc(N)c1C#CC(C)c1ccc(-c2ccncc2)cc1Cl` (stereo not drawn): the GI50 in the experiment with 786-0 renal was 0.00501 µM and 0.0128 µM; with CCRF-CEM leukemia, 0.0143 µM and 0.0367 µM; with EKVX NSCLC, 0.0259 µM and 0.0772 µM; in the experiment on LOX IMVI melanoma, less than 0.005 µM; in the experiment on M14 melanoma, < 0.005 µM and 0.0121 µM; in the experiment with NCI-H23 lung it was 0.00854 µM and 0.0332 µM. Further, the GI50 is 0.115 µM and 0.133 µM with OVCAR-5 ovarian; 0.579 µM and 1.75 µM with SK-MEL-2 melanoma. Also, the TGI was 4.06 µM and 6.63 µM in the experiment with 786-0 renal; 5.48 µM and 14.5 µM in the experiment on CCRF-CEM leukemia; 2.5 µM and 12.6 µM in the experiment on EKVX NSCLC; 1.37 µM and 11.3 µM in the experiment with LOX IMVI melanoma; 1.61 µM and 10.3 µM in the experiment with M14 melanoma; 4.85 µM and 14.3 µM with MDA-MB-435. Also, the TGI with NCI-H23 lung was 5.01 µM and 5.71 µM; in the experiment on OVCAR-5 ovarian it was 6.17 µM and 18.6 µM; in the experiment with SK-MEL-2 melanoma, 3.33 µM and 17.6 µM; with TK-10 renal it was 4.46 µM and 6.39 µM.

Consider `CN1CCN(C2=C(Cl)C(=O)c3ccccc3C2=O)CC1`, for which the GI50 is 1.77 µM in the experiment with 786-0 renal; 2.45 µM with CCRF-CEM leukemia; 3.05 µM in the experiment with EKVX NSCLC; 1.6 µM in the experiment with LOX IMVI melanoma; 1.78 µM with M14 melanoma; 1.95 µM in the experiment with MDA-MB-435. In addition, the GI50 in the experiment on NCI-H23 lung was 1.72 µM; in the experiment with OVCAR-5 ovarian it was 2.03 µM; in the experiment with SK-MEL-2 melanoma, 3.15 µM; with TK-10 renal, 1.71 µM. The TGI in the experiment with 786-0 renal is 3.39 µM; in the experiment with CCRF-CEM leukemia, 7.96 µM; in the experiment on EKVX NSCLC, 11 µM; in the experiment with LOX IMVI melanoma, 3 µM; in the experiment with M14 melanoma, 3.23 µM; in the experiment on MDA-MB-435, 3.6 µM. For the same molecule, the TGI stood at 3.65 µM in the experiment on NCI-H23 lung, 4.18 µM with OVCAR-5 ovarian, 7.96 µM in the experiment on SK-MEL-2 melanoma and 3.29 µM in the experiment with TK-10 renal.

For the molecule `COc1ccc(C2=Nn3c(nnc3-c3ccc(F)c(Cl)c3)SC2)cc1`, the GI50 in the experiment with 786-0 renal is greater than 100 µM; in the experiment on CCRF-CEM leukemia, 57.8 µM; in the experiment on EKVX NSCLC it was greater than 100 µM; in the experiment on LOX IMVI melanoma, greater than 100 µM; with M14 melanoma, greater than 100 µM; in the experiment with MDA-MB-435, greater than 100 µM. The GI50 is greater than 100 µM in the experiment with NCI-H23 lung, 84.6 µM in the experiment on OVCAR-5 ovarian, greater than 100 µM in the experiment with SK-MEL-2 melanoma and greater than 100 µM with TK-10 renal. Moreover, the TGI in the experiment with 786-0 renal, with CCRF-CEM leukemia, with EKVX NSCLC, in the experiment on LOX IMVI melanoma, with M14 melanoma and in the experiment with MDA-MB-435 was greater than 100 µM throughout. The TGI with NCI-H23 lung, with OVCAR-5 ovarian, in the experiment on SK-MEL-2 melanoma and with TK-10 renal was greater than 100 µM each time.

On to `Nc1nc(N)nc(CCCCc2nc(N)nc(N)n2)n1`, for which the TGI in the experiment on 786-0 renal, in the experiment on CCRF-CEM leukemia, in the experiment on EKVX NSCLC, in the experiment on LOX IMVI melanoma, with M14 melanoma and with MDA-MB-435 was greater than 100 µM in each case. Besides, the TGI with NCI-H23 lung, in the experiment on OVCAR-5 ovarian, in the experiment with SK-MEL-2 melanoma and in the experiment on TK-10 renal was greater than 100 µM throughout.

In the case of `CC(NCCN(C)C)C1CCC2C3CCc4cc(O)ccc4C3CCC12C` (stereo not drawn), the TGI in the experiment on 786-0 renal worked out at 4.1 µM; with CCRF-CEM leukemia it was 3.47 µM; in the experiment on EKVX NSCLC, 17.7 µM; in the experiment on LOX IMVI melanoma, 4.75 µM; in the experiment on M14 melanoma, 3.09 µM; in the experiment with MDA-MB-435 it was 4.7 µM. The TGI came to 16.5 µM in the experiment with NCI-H23 lung, 18.3 µM with OVCAR-5 ovarian, 3.79 µM with SK-MEL-2 melanoma and 6.63 µM in the experiment on TK-10 renal.

`N#CC1=C(N)NC(=O)C(C#N)C12Nc1ccccc1S2` (stereo not drawn): the GI50 in the experiment on 786-0 renal is greater than 100 µM; in the experiment with CCRF-CEM leukemia, greater than 100 µM; in the experiment on EKVX NSCLC, greater than 100 µM; in the experiment with LOX IMVI melanoma, 80.1 µM; in the experiment on M14 melanoma it was 87.9 µM; with MDA-MB-435, greater than 100 µM. Moreover, the GI50 in the experiment with NCI-H23 lung was 41.2 µM; in the experiment on OVCAR-5 ovarian, greater than 100 µM; with SK-MEL-2 melanoma, 40.7 µM; with TK-10 renal, 38.9 µM. In addition, the TGI in the experiment with 786-0 renal, in the experiment with CCRF-CEM leukemia, in the experiment on EKVX NSCLC, in the experiment with LOX IMVI melanoma, with M14 melanoma and with MDA-MB-435 was greater than 100 µM throughout. Besides, the TGI with NCI-H23 lung, in the experiment on OVCAR-5 ovarian, with SK-MEL-2 melanoma and in the experiment on TK-10 renal was greater than 100 µM each time.

(Values after PubChem BioAssay (NCI).)
